Legend:
Test in all cases: relative viability vs DMSO control (72 h) (fraction); higher = more viable cells
[1] = test system: A204
How it was run: (§1)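 Percent growth from ATPLite readings, averaged over up to triplicate wells, was used as relative viability. Sarcoma cell lines were seeded into 384-well plates for 80–90% confluence, dosed after 24 h, and kept 72 h at 37 °C, 5% CO2. Data were rescaled to a range where 1 is full and 0 is none.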

[2] = test system: G401
How it was run: as §1

[3] = test system: SYO-1
How it was run: as §1

[4] = test system: SW982
How it was run: as §1

[5] = test system: SW1353
How it was run: as §1

[6] = test system: HT1080
How it was run: as §1

[7] = test system: KHOS-NP
How it was run: as §1

[8] = test system: SW684
How it was run: as §1

[9] = test system: RD-ES
How it was run: as §1

[10] = test system: KHOS-240S
How it was run: as §1

[11] = test system: SK-ES-1
How it was run: as §1

[12] = test system: SW872
How it was run: as §1

Cc1ccc(C(=O)OCc2ccc([C@@H](CN)C(=O)Nc3ccc4cnccc4c3)cc2)c(C)c1 [Netarsudil]
Conditions | relative viability
[1], 0.00017 µM | 1.03
[1], 0.00051 µM | 1.05
[1], 0.00152 µM | 1.04
[1], 0.00457 µM | 1.03
[1], 0.01372 µM | 1.01
[1], 0.04115 µM | 0.963
[1], 0.1235 µM | 0.841
[1], 0.3704 µM | 0.82
[1], 1.111 µM | 0.703
[1], 3.333 µM | 0.609
[1], 10 µM | 0.00737
[2], 0.00017 µM | 0.956
[2], 0.00051 µM | 0.985
[2], 0.00152 µM | 0.977
[2], 0.00457 µM | 0.996
[2], 0.01372 µM | 0.9802
[2], 0.04115 µM | 0.957
[2], 0.1235 µM | 0.968
[2], 0.3704 µM | 0.973
[2], 1.111 µM | 0.941
[2], 3.333 µM | 0.946
[2], 10 µM | 0.00503
[3], 0.00017 µM | 0.953
[3], 0.00051 µM | 0.962
[3], 0.00152 µM | 0.952
[3], 0.00457 µM | 0.953
[3], 0.01372 µM | 0.923
[3], 0.04115 µM | 0.874
[3], 0.1235 µM | 0.828
[3], 0.3704 µM | 0.756
[3], 1.111 µM | 0.691
[3], 3.333 µM | 0.636
[3], 10 µM | -0.0088
[4], 0.00017 µM | 1.06
[4], 0.00051 µM | 1.03
[4], 0.00152 µM | 1.03
[4], 0.00457 µM | 1.04
[4], 0.01372 µM | 1.05
[4], 0.04115 µM | 1.032
[4], 0.1235 µM | 0.98
[4], 0.3704 µM | 0.897
[4], 1.111 µM | 0.841
[4], 3.333 µM | 0.749
[4], 10 µM | 0.0152
[5], 0.00017 µM | 0.939
[5], 0.00051 µM | 0.945
[5], 0.00152 µM | 0.946
[5], 0.00457 µM | 0.944
[5], 0.01372 µM | 0.926
[5], 0.04115 µM | 0.946
[5], 0.1235 µM | 0.898
[5], 0.3704 µM | 0.7532
[5], 1.111 µM | 0.628
[5], 3.333 µM | 0.553
[5], 10 µM | 0.0095
[6], 0.00017 µM | 1.03
[6], 0.00051 µM | 1.02
[6], 0.00152 µM | 1.043
[6], 0.00457 µM | 0.994
[6], 0.01372 µM | 1.03
[6], 0.04115 µM | 1.01
[6], 0.1235 µM | 1.03
[6], 0.3704 µM | 1.04
[6], 1.111 µM | 1.03
[6], 3.333 µM | 1.02
[6], 10 µM | 0.0118
[7], 0.00017 µM | 1.03
[7], 0.00051 µM | 1.06
[7], 0.00152 µM | 1.03
[7], 0.00457 µM | 1.05
[7], 0.01372 µM | 1.03
[7], 0.04115 µM | 1.03
[7], 0.1235 µM | 1
[7], 0.3704 µM | 0.997
[7], 1.111 µM | 0.968
[7], 3.333 µM | 0.986
[7], 10 µM | 0.0142
[8], 0.00017 µM | 1.12
[8], 0.00051 µM | 1.1
[8], 0.00152 µM | 1.11
[8], 0.00457 µM | 1.11
[8], 0.01372 µM | 1.09
[8], 0.04115 µM | 1.076
[8], 0.1235 µM | 0.991
[8], 0.3704 µM | 0.8806
[8], 1.111 µM | 0.884
[8], 3.333 µM | 0.805
[8], 10 µM | -0.0136
[9], 0.00017 µM | 0.995
[9], 0.00051 µM | 0.98
[9], 0.00152 µM | 0.971
[9], 0.00457 µM | 0.9831
[9], 0.01372 µM | 0.976
[9], 0.04115 µM | 1.02
[9], 0.1235 µM | 1.015
[9], 0.3704 µM | 1.035
[9], 1.111 µM | 1.01
[9], 3.333 µM | 0.677
[9], 10 µM | 0.0137
[10], 0.00017 µM | 1.06
[10], 0.00051 µM | 1.07
[10], 0.00152 µM | 1.05
[10], 0.00457 µM | 1.05
[10], 0.01372 µM | 1.01
[10], 0.04115 µM | 1.03
[10], 0.1235 µM | 0.903
[10], 0.3704 µM | 0.768
[10], 1.111 µM | 0.686
[10], 3.333 µM | 0.541
[10], 10 µM | 0.0141
[11], 0.00017 µM | 1.01
[11], 0.00051 µM | 0.999
[11], 0.00152 µM | 1.04
[11], 0.00457 µM | 1.04
[11], 0.01372 µM | 1.03
[11], 0.04115 µM | 1.04
[11], 0.1235 µM | 1.03
[11], 0.3704 µM | 1.04
[11], 1.111 µM | 1.04
[11], 3.333 µM | 0.761
[11], 10 µM | 0.0124
[12], 0.00017 µM | 0.997
[12], 0.00051 µM | 1.01
[12], 0.00152 µM | 1.01
[12], 0.00457 µM | 0.988
[12], 0.01372 µM | 1.01
[12], 0.04115 µM | 0.955
[12], 0.1235 µM | 0.961
[12], 0.3704 µM | 0.82
[12], 1.111 µM | 0.74
[12], 3.333 µM | 0.637
[12], 10 µM | 0.000233
